Results on 4 compounds are retold here after patent publication US20200360386A1, “Inhibitors of HSP90, PI3-Kinase, Proteasome, HDAC, and P97 Pathways for Selective Removal of Senescent Cells in the Treatment of Age Related Conditions” (Unity Biotechnology, Inc., priority 2017, published 2020).

Holding throughout (type): in vivo, mouse
The subject of series [1] is 3MR or INK-ATTAC mice exposed to cigarette smoke. Put plainly: Cigarette smoke induced COPD model, oxygen saturation by pulse oximeter. Particulars: after two months of cigarette smoke exposure, compared with untreated controls; FIG. 6. How it is done: As a model for chronic obstructive pulmonary disease (COPD), mice were exposed to cigarette smoke. The effect of a senolytic agent on the mice exposed to smoke is assessed by senescent cell clearance, lung function, and histopathology.
The mice used in this study include the 3MR strain, described in US 2017/0027139 A1 and in Demaria et al., Dev Cell. 2014 Dec. 22; 31 (6): 722-733. The 3MR mouse has a transgene encoding thymidine kinase that converts the prodrug gancyclovir (GCV) to a compound that is lethal to cells. The enzyme in the transgene is placed under control of the p16 promoter, which causes it to be specifically expressed in senescent cells. Treatment of the mice with GCV eliminates senescent cells.
Other mice used in this study include the INK-ATTAC strain, described in US 2015/0296755 A1 and in Baker et al., Nature 2011 Nov. 2; 479 (7372):232-236. The INK-ATTAC mouse has a transgene encoding switchable caspase 8 under control of the p16 promoter. The caspase 8 can be activated by treating the mice with the switch compound AP20187, whereupon the caspase 8 directly induces apoptosis in senescent cells, eliminating them from the mouse.
To conduct the experiment, six-week-old 3MR (n=35) or INK-ATTAC (n=35) mice were chronically exposed to cigarette smoke generated from a Teague TE-10 system, an automatically-controlled cigarette smoking machine that produces a combination of side-stream and mainstream cigarette smoke in a chamber, which is transported to a collecting and mixing chamber where varying amounts of air is mixed with the smoke mixture. The COPD protocol was adapted from the COPD core facility at Johns Hopkins University (Rangasamy et al., 2004, J. Clin. Invest. 114:1248-1259; Yao et al., 2012, J. Clin. Invest. 122:2032-2045).
Mice received a total of 6 hours of cigarette smoke exposure per day, 5 days a week for 6 months. Each lighted cigarette (3R4F research cigarettes containing 10.9 mg of total particulate matter (TPM), 9.4 mg of tar, and 0.726 mg of nicotine, and 11.9 mg carbon monoxide per cigarette [University of Kentucky, Lexington, Ky.]) was puffed for 2 seconds and once every minute for a total of 8 puffs, with the flow rate of 1.05 L/min, to provide a standard puff of 35 cm^3. […] The smoke chamber atmosphere was monitored for total suspended particulates (80-120 mg/m3) and carbon monoxide (350 ppm). […]
After two months of cigarette smoke (CS) exposure, lung function was assessed by monitoring oxygen saturation using the MouseSTAT PhysioSuite™ pulse oximeter (Kent Scientific). […] Mice were monitored for 30 seconds and the average peripheral capillary oxygen saturation (SpO2) measurement over this duration was calculated.

Series [2] deals with C57BL/6J mice, osteoarthritis induced by ACL surgery. Put plainly: Osteoarthritis model: anterior cruciate ligament surgery, intra-articular treatment. How it is done: The model was implemented as follows. C57BL/6J mice underwent surgery to cut the anterior cruciate ligament of one rear limb to induce osteoarthritis in the joint of that limb. During week 3 and week 4 post-surgery, the mice were treated with 5.8 μg of Nutlin-3A (n=7) per operated knee by intra-articular injection, q.o.d. for 2 weeks. At the end of 4 weeks post-surgery, joints of the mice were monitored for presence of senescent cells, assessed for function, monitored for markers of inflammation, and underwent histological assessment.
Two control groups of mice were included in the studies performed: one group comprising C57BL/6J or 3MR mice that had undergone a sham surgery (n=3) (i.e., surgical procedures followed except for cutting the ACL) and intra-articular injections of vehicle parallel to the GCV (gancyclovir) treated group; and one group comprising C57BL/6J or 3MR mice that had undergone an ACL surgery and received intra-articular injections of vehicle (n=5) parallel to the GCV-treated group. RNA from the operated joints of mice from the Nutlin-3A treated mice was analyzed for expression of SASP factors (mmp3, IL-6) and senescence markers (p16). qRT-PCR was performed to detect mRNA levels.
Function of the limbs was assessed 4 weeks post-surgery by a weight bearing test to determine which leg the mice favored. The mice were allowed to acclimate to the chamber on at least three occasions prior to taking measurements. Mice were maneuvered inside the chamber to stand with one hind paw on each scale. The weight that was placed on each hind limb was measured over a three second period. At least three separate measurements were made for each animal at each time point. The results were expressed as the percentage of the weight placed on the operated limb versus the contralateral unoperated limb.

Series [3] deals with LDLR-/- mice fed a high fat diet. Put plainly: Atherosclerosis model: LDLR-/- mice on high fat diet, systemic treatment. How it is done:
This example illustrates the testing of an MDM2 inhibitor in a mouse model for treatment of atherosclerosis. The test compounds are administered systemically rather than locally. The model is done in an LDLR−/− strain of mice, which are deficient in the receptor for low-density lipoprotein. The experiments described here can be adapted mutatis mutandis to test and develop other types of inhibitors for use in clinical therapy.
Two groups of LDLR−/− mice (10 weeks) are fed a high fat diet (HFD) (Harlan Teklad TD.88137) having 42% calories from fat, beginning at Week 0 and throughout the study. Two groups of LDLR−/− mice (10 weeks) are fed normal chow (−HFD). From weeks 0-2, one group of HFD mice and −HFD mice are treated with Nutlin-3A (25 mg/kg, intraperitoneally). One treatment cycle is 14 days treatment, 14 days off. Vehicle is administered to one group of HFD mice and one group of −HFD mice. At week 4 (timepoint 1), one group of mice are sacrificed and to assess presence of senescent cells in the plaques. For the some of the remaining mice, Nutlin-3A and vehicle administration is repeated from weeks 4-6. At week 8 (timepoint 2), the mice are sacrificed and to assess presence of senescent cells in the plaques. The remaining mice are treated with Nutlin-3A or vehicle from weeks 8-10. At week 12 (timepoint 3), the mice are sacrificed and to assess the level of plaque and the number of senescent cells in the plaques.
Plasma lipid levels were measured in LDLR−/− mice fed a HFD and treated with Nutlin-3A or vehicle at timepoint 1 as compared with mice fed a −HFD (n=3 per group). Plasma was collected mid-afternoon and analyzed for circulating lipids and lipoproteins.
At the end of timepoint 1, LDLR−/− mice fed a HFD and treated with Nutlin-3A or vehicle were sacrificed (n=3, all groups), and the aortic arches were dissected for RT-PCR analysis of SASP factors and senescent cell markers. Values were normalized to GAPDH and expressed as fold-change versus age-matched, vehicle-treated LDLR−/− mice on a normal diet.
At the end of timepoint 2, LDLR−/− mice fed a HFD and treated with Nutlin-3A or vehicle (n=3 for all groups) were sacrificed, and aortic arches were dissected for RT-PCR analysis of SASP factors and senescent cell markers. Values were normalized to GAPDH and expressed as fold-change versus age-matched, vehicle-treated LDLR−/− mice on a normal diet.
At the end of timepoint 3, LDLR−/− mice fed a HFD and treated with Nutlin-3A or vehicle (n=3 for all groups) were sacrificed, and aortas were dissected and stained with Sudan IV to detect the presence of lipid. Body composition of the mice was analyzed by MRI, and circulating blood cells were counted by Hemavet™.

Molecules are shown by their SMILES.

Take `CC[C@H](C(=O)N1CCCC[C@H]1C(=O)O[C@H](CCc1ccc(OC)c(OC)c1)c1cccc(OCC(=O)NCC(CNC(=O)COc2cccc([C@@H](CCc3ccc(OC)c(OC)c3)OC(=O)[C@@H]3CCCCN3C(=O)[C@@H](CC)c3cc(OC)c(OC)c(OC)c3)c2)CN(C)C)c1)c1cc(OC)c(OC)c(OC)c1` [AP2018]: the “SpO2 levels (peripheral capillary oxygen saturation)” value (“SpO2 levels” for short) in series [1] is listed as “statistically significant increases”.

With `COc1ccc(C2=N[C@@H](c3ccc(Cl)cc3)[C@@H](c3ccc(Cl)cc3)N2C(=O)N2CCNC(=O)C2)c(OC(C)C)c1` [Nutlin-3A], in series [2] (5.8 μg per operated knee intra-articular q.o.d. for 2 weeks, 4 weeks post-surgery, FIG. 3A), the “expression of p16 in the joint tissue (qRT-PCR)” value was “reduced the expression back to below the level of the controls”. Further, the “expression of IL-6 in the joint tissue (qRT-PCR)” value in series [2] (5.8 μg per operated knee intra-articular q.o.d. for 2 weeks, 4 weeks post-surgery, FIG. 3B) was “reduced the expression back to below the level of the controls”. Moreover, in series [2] (5.8 μg per operated knee intra-articular q.o.d. for 2 weeks, 4 weeks post-surgery, FIG. 3C), the “expression of MMP13 in the joint tissue (qRT-PCR)” value is “reduced the expression back to below the level of the controls”. Further, the “weight bearing test: favoring of the unoperated hind limb over the operated hind limb” value in series [2] (4 weeks post-surgery, FIG. 4A) is “abrogated this effect”. Moreover, the “histopathology: destruction of the proteoglycan layer of the joint” value in series [2] (FIGS. 4B-4D) is on record as “completely abrogated this effect”. Also, in series [1], the “SpO2 levels” value was “statistically significant increases”. The “expression of SASP factors and senescent cell markers in aortic arch (RT-PCR): MMP3, MMP13, PAI1, p21, IGFBP2, IL-1A, IL-1B” value in series [3] (25 mg/kg intraperitoneally, timepoint 1 (week 4), after one treatment cycle) was “reduced expression of several SASP factors and senescent cell markers”. In addition, in series [3] (25 mg/kg intraperitoneally, timepoint 2 (week 8), multiple treatment cycles), the “expression of SASP factors and senescent cell markers in aortic arch (RT-PCR)” value is “reduced expression of most markers”. The “reduction of surface area covered by plaques in the descending aorta” value in series [3] (25 mg/kg intraperitoneally, timepoint 3 (week 12), Sudan IV staining, FIG. 7) is “about 45%”. For the same compound, in series [3] (timepoint 3 (week 12), Hemavet), the “platelet and lymphocyte counts versus vehicle treated mice” value was “equivalent”. In addition, the “mass and body fat composition” value in series [3] (timepoint 3 (week 12), MRI, mice fed the high fat diet) was “decreased mass and body fat composition”.

For the compound `CC1(C)CCC(c2ccc(Cl)cc2)=C(CN2CCN(c3ccc(C(=O)NS(=O)(=O)c4ccc(N[C@H](CCN5CCOCC5)CSc5ccccc5)c(S(=O)(=O)C(F)(F)F)c4)cc3)CC2)C1` [ABT-263, Navitoclax], the “SpO2 levels” value in series [1] is “statistically significant increases”.

Take `Nc1nc(O)c2ncn(COC(CO)CO)c2n1` [ganciclovir]: the “SpO2 levels” value in series [1] is recorded as “statistically significant increases”.
